Laboratory results: patent US12246026B2, “Ganaxolone for use in treatment of status epilepticus” (Marinus Pharmaceuticals, Inc., priority 2019, dated 2025)
“Also recorded” adds a separate entry of the source.

Key:
[1] = Safety in the ganaxolone clinical development program; type: in vivo, human
Description: In the completed placebo-controlled Phase 1, 2, and 3 studies, 0.32% of subjects who received ganaxolone and 0.46% of subjects who received placebo developed elevated LFTs during the study (>3×ULN AST and/or ALT). A subject participating in the ganaxolone paediatric epilepsy study developed liver failure, which was not considered to be related to ganaxolone. The subject was diagnosed with short bowel syndrome, liver steatosis and IgG-cholangitis, which were considered to be the causal factors for the subject's liver failure. There have been no other cases of Hy's Law or liver failure in the ganaxolone development program. […] After cessation of the dosing, plasma ganaxolone levels are expected to drop rapidly, but it is possible that low sub-therapeutic levels persist for several days as ganaxolone is slowly released from tissues.
Ganaxolone has been administered to infants with severe forms of epilepsy as early as 4 months of age. In clinical trials involving administration of ganaxolone over several weeks, the study drug has been tapered off over a 1 to 2-week period.

subjects with SE = assay: Phase 2 Study 1042-SE-2001 open-label group, seizure control by EEG; type: in vivo, human
Description: Example 2 is an ongoing, double-blind, randomized, placebo-controlled Phase 2 study designed to evaluate the safety, tolerability, and efficacy of adjunctive IV GNX in subjects with SE who have failed initial treatment with benzodiazepines and at least one AED. The study consists of a small open-label group to optimize the infusion parameters and provide a preliminary assessment of safety, efficacy, and tolerability of GNX administration, followed by a double-blind group who will be randomized to receive GNX or placebo in a 1:1 ratio. In both the open-label and double-blind groups, the study drug treatment is adjunctive therapy to standard of care, and subjects will receive a study drug bolus dose with a concurrent continuous infusion treatment with the goal of administering a therapeutic dose as quickly as possible to stop the seizures and prevent permanent neurological damage. Specifically, study drug will be added to the standard of care at the time that the first 2nd-line IV AED has failed and the second 2nd-line IV AED is medically indicated during the treatment of SE. Study drug must be administered with the second-line IV AED as close to the dose initiation of the second 2nd-line IV AED as possible, but before the initiation of the third-line IV anesthetic for burst suppression.
Ganaxolone for this study is a proprietary IV formulation solubilized by Captisol® (betadex sulfobutyl ether sodium). The maximum level of Captisol® will not exceed 50 g/per day. Ganaxolone for IV administration will be provided to the site as individual glass vials containing 3 mg/mL of ganaxolone for the open-label group and 5 mg/mL of ganaxolone for the double-blind group. Placebo for double-blind group IV administration will be provided to the site as blinded matching vials containing 0.9% sodium chloride solution.
Total adjunctive GNX therapy infusion treatment is planned to be 3 or 5 days (including an 18-hour taper). All subjects will have a 3-minute bolus dose with a continuous infusion at the rate from about 10 mg/hour to about 85 mg/hour or from about 18 mg/hr to 80 mg/hr, and an 18-hour taper. Once study drug administration is started it will be delivered for a full 2 or 4 days (48 or 96 hours) prior to tapering. At the end of second day administration, the decision to administer the study drug for an additional 2 days (i.e., for a total of 4 days) will be made. If in the investigator's medical judgment the subject will continue benefitting from study drug administration, ganaxolone will be administered to the additional 2 days.
As of 22 Mar. 2019, 5 subjects were enrolled into the Study 1042-SE-2001 open-label group under the original protocol that limits daily Captisol exposure at 35 g/day. […] The initial EEG pattern post-infusion initiation was described by study physicians as a “light” burst suppression that was maintained for several hours in all subjects. […] It was observed that when GNX exposure was lowered (20 mg/hr for 2 hours and ending with 10 mg/hr for the remaining 18 hours on Day 1) in order not to exceed this limit, seizure control could not be maintained and seizure activity (but not SE) re-occurred as evidenced by EEG changes. […] Seizure activity relapsed when plasma concentrations of GNX decreased <500 ng/mL in 4 out of 5 subjects.

subject with SRSE = assay: Emergency IND No. 131,642, IV GNX in SRSE, EEG response; type: in vivo, human
Protocol: Under eIND No. 131,642, IV GNX was administered to a subject with SRSE who was unable to maintain status cessation with ketamine and barbiturates. The Day 1 dosage regimen delivered 900 mg of GNX, equating to a 900 to 1200 ng/mL plasma concentration of GNX. As the subject could not be maintained in burst suppression, the clinical team was able to utilize EEG changes to gauge the response (FIG. 11). […] However, due to the dosing plan agreed upon with the FDA with a daily Captisol limit of 63 g/day, the initial 120 mg/hr dose on Day 1 could not be maintained for longer than 1 hour and then had to be decreased to the 30 mg/hr dose. The first seizures re-occurred within 15 to 20 minutes of the change in GNX dose from 120 mg/hr to 30 mg/hr.

CYP3A4/5 = assay: Metabolism by CYP enzymes; settings: human
[2] = Phase 2 open-label dose range study, safety
Description: Secondary objectives included assessment of adverse events and evaluation of the pharmacokinetics of IV ganaxolone in patients with SE.

SMILES: CC(=O)[C@H]1CC[C@H]2[C@@H]3CC[C@H]4C[C@](C)(O)CC[C@]4(C)[C@H]3CC[C@]12C [Ganaxolone, 3α-hydroxy-3β-methyl-5α-pregnan-20-one]
- withdrawal symptoms after cessation ([1]; clinical trials, tapered off over 1 to 2 weeks): no reports of withdrawal symptoms
- subjects who developed elevated LFTs (>3×ULN AST and/or ALT) ([1]; completed placebo-controlled Phase 1, 2 and 3 studies): 0.32%
- trends in ECG intervals, vital signs, physical or neurological examinations ([1]; development program overall): no clinically significant trends
- excretion to breast milk ([1]; ganaxolone and its metabolites): excreted to breast milk
- duration seizure protection was maintained (subjects with SE; 1 subject, amended protocol): 48 h
- time to RSE cessation after starting IV GNX infusion (subjects with SE; 1 subject, amended protocol, Captisol 50 g/day, NCSE due to tumor): ≤ 3 min
- seizure relapse on weaning off GNX (subjects with SE; 1 subject, amended protocol, listed as GNX): no seizure relapse; also recorded: without seizure relapse
- EEG response after start of GNX (subjects with SE; Subject 004-101, 30 mg bolus, 85 mg/hr): Almost immediately the EEG showed seizure suppression
- time of seizure relapse post infusion start (subjects with SE; Subject 004-101, at 20 mg/hr): approximately 5 hours
- time at which additional intervention was required post-dose initiation (subjects with SE; Subject 004-102): approximately 42.5 hours
- seizure activity on EEG (subjects with SE; Subject 004-102, 60 minutes and 2 hours post-dose initiation): no seizure activity
- time of return of concerning EEG pattern post-dose initiation (subjects with SE; Subject 004-102, at 20 mg/hr): 5 to 6 h
- time to SE abort after bolus administration (subjects with SE; Subject 006-101): ≤ 1 min
- seizure activity on EEG (subjects with SE; Subject 006-101, 60 minutes and 2 hours post-dose initiation): no seizure activity
- time of seizure relapse post infusion start (subjects with SE; Subject 006-101, at 20 mg/hr): approximately 6 hours
- effect of bolus on SE (subjects with SE; Subject 006-102): SE aborted upon administration of the bolus
- seizure activity on EEG (subjects with SE; Subject 006-102, 60 minutes, 2 hours and 4 hours post-dose initiation): no seizure activity
- time of seizure relapse post infusion start (subjects with SE; Subject 006-102, at 20 mg/hr): approximately 6 hours
- seizure return during treatment (subjects with SE; Subject 015-101, focal convulsive SE): Seizures did not return during the treatment period
- effect of initial bolus plus continuous infusion on seizures/SE (EEG) (subjects with SE; all 5 subjects, 30 mg bolus, 85 mg/hr 2 h then 40 mg/hr 2 h, listed as GNX): immediate cessation of seizures; also recorded: immediate cessation of SE
- subjects with seizure activity relapse when plasma GNX decreased <500 ng/mL (subjects with SE; original protocol, Captisol 35 g/day): 4 out of 5
- dose at which the effect of GNX started (subject with SRSE; eIND 131,642): 60 mg/h
- EEG seizure response (subject with SRSE; eIND 131,642, at 120 mg/hr): complete seizure cessation
- time to first seizure re-occurrence after dose change (subject with SRSE; eIND 131,642, change from 120 mg/hr to 30 mg/hr): 15 to 20 min
- metabolizing enzymes (CYP3A4/5): metabolized by CYP3A4/5
- tolerability of GNX infusion ([2]; 17 RSE patients): generally well-tolerated
- participants with SAEs (severe sedation) assessed as related to GNX, leading to early discontinuation ([2]; concomitant CNS depressant medications): 2 participants
